Test results reported in US9951065B2 (Gilead Sciences, Inc., priority 2015, dated 2018).

Target: T1, IDO1 (Homo sapiens, UniProt P14902)
T1 construct: HeLa cells were treated with a test compound in the presence of IFNγ, which induces IDO1 expression; host or cells: H1-HeLa cells, IDO1 induced with IFNγ
Assay: Cell-based (HeLa) assay for measurement of IDO1 inhibition (kynurenine levels in supernatant after IFNγ induction)
Details: HeLa cells, geometric mean of a minimum of four determinations
How it was run: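 HeLa cells, 1,250 per well, treated with compound (0.5% DMSO final) plus IFNγ to induce IDO1, for 48 h. Supernatant kynurenine measured by TCA hydrolysis at 60 °C, then p-dimethylaminobenzaldehyde, absorbance 480 nm. EC50 from a four-parameter fit normalized to −/+IFNγ controls; geometric mean of at least four runs.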

[1] = IFNγ-induced IDO1, kynurenine in supernatant after 48 hour incubation
[2] = IFNγ-induced IDO1, kynurenine in supernatant, 48 hour incubation

T1 sequence (P14902 whole entry): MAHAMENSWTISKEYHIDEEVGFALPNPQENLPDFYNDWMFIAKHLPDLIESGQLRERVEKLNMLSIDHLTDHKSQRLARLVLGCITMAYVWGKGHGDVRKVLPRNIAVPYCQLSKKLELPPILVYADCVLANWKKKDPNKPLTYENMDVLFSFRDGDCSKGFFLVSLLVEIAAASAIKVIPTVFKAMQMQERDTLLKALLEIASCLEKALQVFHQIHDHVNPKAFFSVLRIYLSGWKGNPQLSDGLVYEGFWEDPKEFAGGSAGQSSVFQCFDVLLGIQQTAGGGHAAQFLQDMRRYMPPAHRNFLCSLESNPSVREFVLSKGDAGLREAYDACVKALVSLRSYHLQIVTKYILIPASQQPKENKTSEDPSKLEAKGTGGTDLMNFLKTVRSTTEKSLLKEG

Compound	EC50 [1] [nM]	EC50 [2] [nM]
O/N=C(\Nc1ccc(F)c(Cl)c1)c1ccnc2nc(CNCc3nccs3)[nH]c12 [Example 144, N-(3-Chloro-4-fluorophenyl)-N′-hydroxy-2-(((thiazol-2-ylmethyl)amino)methyl)-1H-imidazo[4,5-b]pyridine-7-carboximidamide]	8230	
C[C@@H]1CN(CCNc2nc3nccc(/C(=N/O)Nc4ccc(F)c(Cl)c4)c3[nH]2)C[C@H](C)O1 [Example 478, N-(3-chloro-4-fluorophenyl)-2-((2-((2S,6R)-2,6-dimethylmorpholino)ethyl)amino)-N′-hydroxy-1H-imidazo[4,5-b]pyridine-7-carboximidamide]		1010
CN(C)c1ccccc1CNc1nc2c(F)c(F)cc(/C(=N/O)Nc3ccc(F)c(Cl)c3)c2[nH]1 [Example 348, N-(3-chloro-4-fluorophenyl)-2-((2-(dimethylamino)benzyl)amino)-4,5-difluoro-N′-hydroxy-1H-benzo[d]imidazole-7-carboximidamide]		3430
O/N=C(\Nc1ccc(F)c(Cl)c1)c1ccnc2nc(NCCN3CCC(F)(F)C3)[nH]c12 [Example 491, N-(3-chloro-4-fluorophenyl)-2-((2-(3,3-difluoropyrrolidin-1-yl)ethyl)amino)-N′-hydroxy-1H-imidazo[4,5-b]pyridine-7-carboximidamide]		917
CC(C)N(CCNc1nc2nccc(/C(=N/O)Nc3ccc(F)c(Cl)c3)c2[nH]1)C1CC1 [Example 406, N-(3-chloro-4-fluorophenyl)-2-((2-(cyclopropyl(isopropyl)amino)ethyl)amino)-N′-hydroxy-1H-imidazo[4,5-b]pyridine-7-carboximidamide]		185
O/N=C(\Nc1cccc(C(F)(F)F)c1)c1ccnc2nc[nH]c12 [Example 73, N′-Hydroxy-N-(3-(trifluoromethyl)phenyl)-1H-imidazo[4,5-b]pyridine-7-carboximidamide]	373	
O/N=C(\Nc1ccc(F)c(Cl)c1)c1ccnc2nc(CNCCc3ncccn3)[nH]c12 [Example 137, N-(3-Chloro-4-fluorophenyl)-N′-hydroxy-2-(((2-(pyrimidin-2-yl)ethyl)amino)methyl)-1H-imidazo[4,5-b]pyridine-7-carboximidamide]	7490	
CN1CCOCC1CNc1nc2c(F)c(F)cc(/C(=N/O)Nc3ccc(F)c(Cl)c3)c2[nH]1 (centres unmarked) [Example 429, N-(3-chloro-4-fluorophenyl)-4,5-difluoro-N′-hydroxy-2-(((4-methylmorpholin-3-yl)methyl)amino)-1H-benzo[d]imidazole-7-carboximidamide]		1350
CN(C)CCc1nc2nccc(/C(=N/O)Nc3cccc(Cl)c3)c2[nH]1 [Example 264, N-(3-chlorophenyl)-2-(2-(dimethylamino)ethyl),N′-hydroxy-1H-imidazo[4,5-b]pyridine-7-carboximidamide]	722	
CCN(CC)[C@@H]1COC[C@H]1Nc1nc2c(F)c(F)cc(/C(=N/O)Nc3ccc(F)c(Cl)c3)c2[nH]1 [Example 476, N-(3-chloro-4-fluorophenyl)-2-(((3S,4S)-4-(diethylamino)tetrahydrofuran-3-yl)amino)-4,5-difluoro-N′-hydroxy-1H-benzo[d]imidazole-7-carboximidamide]		468
COc1c(F)cc(/C(=N/O)Nc2ccc(F)c(Cl)c2)c2[nH]cnc12 [Example 307, N-(3-chloro-4-fluorophenyl)-5-fluoro-N′-hydroxy-4-methoxy-1H-benzo[d]imidazole-7-carboximidamide]		209
CC(O)c1nc2nccc(/C(=N/O)Nc3ccc(F)c(Cl)c3)c2[nH]1 (centres unmarked) [Example 172, N-(3-Chloro-4-fluorophenyl)-N′-hydroxy-2-(1-hydroxyethyl)-1H-imidazo[4,5-b]pyridine-7-carboximidamide]	3860	
CN(CCc1nc2nccc(/C(=N/O)Nc3ccc(F)c(Cl)c3)c2[nH]1)CC(C)(C)C [Example 392, N-(3-chloro-4-fluorophenyl)-N′-hydroxy-2-(2-(methyl(neopentyl)amino)ethyl)-1H-imidazo[4,5-b]pyridine-7-carboximidamide]		1230
CCNc1nc2nccc(/C(=N/O)Nc3ccc(F)c(Cl)c3)c2[nH]1 [Example 163, N-(3-Chloro-4-fluorophenyl)-2-(ethylamino)-N′-hydroxy-1H-imidazo[4,5-b]pyridine-7-carboximidamide]	1080	
CN(CCNc1nc2c(F)c(F)cc(/C(=N/O)Nc3ccc(F)c(Cl)c3)c2[nH]1)CC1CCOCC1 [Example 394, N-(3-chloro-4-fluorophenyl)-4,5-difluoro-N′-hydroxy-2-((2-(methyl((tetrahydro-2H-pyran-4-yl)methyl)amino)ethyl)amino)-1H-benzo[d]imidazole-7-carboximidamide]		332
Cc1nnc(CNc2nc3nccc(/C(=N/O)Nc4ccc(F)c(Cl)c4)c3[nH]2)o1 [Example 427, N-(3-chloro-4-fluorophenyl)-N′-hydroxy-2-(((5-methyl-1,3,4-oxadiazol-2-yl)methyl)amino)-1H-imidazo[4,5-b]pyridine-7-carboximidamide]		1070

Compound	EC50 [1] [nM]	EC50 [2] [nM]
O/N=C(\Nc1ccc(F)c(Cl)c1)c1ccc(F)c2nc(NCCCN3CCOCC3)[nH]c12 [Example 200, N-(3-Chloro-4-fluorophenyl)-7-fluoro-N′-hydroxy-2-(3-morpholin-4-ylpropylamino)-3H-benzimidazole-4-carboximidamide]	564	
O=C1CCCN1CCNc1nc2nccc(/C(=N/O)Nc3ccc(F)c(Cl)c3)c2[nH]1 [Example 235, N-(3-chloro-4-fluorophenyl)-N′-hydroxy-2-((2-(2-oxopyrrolidin-1-yl)ethyl)amino)-1H-imidazo[4,5-b]pyridine-7-carboximidamide]	4820	
CN(C)CCNCc1nc2nccc(/C(=N/O)Nc3ccc(F)c(Cl)c3)c2[nH]1 [Example 136, N-(3-Chloro-4-fluorophenyl)-2-(((2-(dimethylamino)ethyl)amino)methyl)-N′-hydroxy-1H-imidazo[4,5-b]pyridine-7-carboximidamide]	6270	
CC(=O)NCCc1nc2nccc(/C(=N/O)Nc3ccc(F)c(Cl)c3)c2[nH]1 [Example 270, N-(2-(7-(N-(3-chloro-4-fluorophenyl)-N′-hydroxycarbamimidoyl)-1H-imidazo[4,5-b]pyridin-2-yl)ethyl)acetamide]	> 10000	
O/N=C(\Nc1ccc(F)c(Cl)c1)c1ccnc2nc(CNCC(F)F)[nH]c12 [Example 142, N-(3-Chloro-4-fluorophenyl)-2-(((2,2-difluoroethyl)amino)methyl)-N′-hydroxy-1H-imidazo[4,5-b]pyridine-7-carboximidamide]	5160	
Nc1nc2c(F)ccc(/C(=N/O)Nc3ccc(F)c(Cl)c3)c2[nH]1 [Example 22, 2-Amino-N-(3-chloro-4-fluorophenyl)-4-fluoro-N′-hydroxy-1H-benzo[d]imidazole-7-carboximidamide]	382	
CN(C)CCCNc1nc2c(F)c(F)cc(/C(=N/O)Nc3ccc(F)c(Cl)c3)c2[nH]1 [Example 39, N-(3-Chloro-4-fluorophenyl)-2-((3-(dimethylamino)propyl)amino)-4,5-difluoro-N′-hydroxy-1H-benzo[d]imidazole-7-carboximidamide]	473	
CN1CCC(Nc2nc3nccc(/C(=N/O)Nc4ccc(F)c(Cl)c4)c3[nH]2)C1 (centres unmarked) [Example 203, N-(3-Chloro-4-fluorophenyl)-N′-hydroxy-2-[(1-methylpyrrolidin-3-yl)amino]-1H-imidazo[4,5-b]pyridine-7-carboximidamide]	1340	
O=c1onc(-c2ccnc3nc(CO)[nH]c23)n1-c1ccc(F)c(Cl)c1 [Example 111, 4-(3-Chloro-4-fluorophenyl)-3-(2-(hydroxymethyl)-1H-imidazo[4,5-b]pyridin-7-yl)-1,2,4-oxadiazol-5(4H)-one]	4450	
O/N=C(\Nc1ccc(F)c(Cl)c1)c1ccnc2nc(CNc3ncccn3)[nH]c12 [Example 182, N-(3-Chloro-4-fluorophenyl)-N′-hydroxy-2-((pyrimidin-2-ylamino)methyl)-1H-imidazo[4,5-b]pyridine-7-carboximidamide]	6400	
CS(=O)(=O)CCNc1nc2c(F)c(F)cc(/C(=N/O)Nc3ccc(F)c(Cl)c3)c2[nH]1 [Example 35, N-(3-Chloro-4-fluorophenyl)-4,5-difluoro-N′-hydroxy-2-((2-(methylsulfonyl)ethyl)amino)-1H-benzo[d]imidazole-7-carboximidamide]	2150	
CC(C)N(C)CCNc1nc2nccc(/C(=N/O)Nc3ccc(F)c(Cl)c3)c2[nH]1 [Example 240, N-(3-chloro-4-fluorophenyl)-N′-hydroxy-2-((2-(isopropyl(methyl)amino)ethyl)amino)-1H-imidazo[4,5-b]pyridine-7-carboximidamide]	590	
CC(=O)NCc1nc2nccc(/C(=N/O)Nc3ccc(F)c(Cl)c3)c2[nH]1 [Example 145, N-((7-(N-(3-Chloro-4-fluorophenyl)-N′-hydroxycarbamimidoyl)-1H-imidazo[4,5-b]pyridin-2-yl)methyl)acetamide]	9760	
O/N=C(\Nc1ccc(F)c(Cl)c1)c1cc(F)c(F)c2nc(NCC3COCCN3)[nH]c12 (centres unmarked) [Example 467, N-(3-chloro-4-fluorophenyl)-4,5-difluoro-N′-hydroxy-2-((morpholin-3-ylmethyl)amino)-1H-benzo[d]imidazole-7-carboximidamide]		2120
CN(C)CCc1nc2nccc(/C(=N/O)Nc3cccc(Br)c3)c2[nH]1 [Example 265, N-(3-bromophenyl)-2-(2-(dimethylamino)ethyl)-N′-hydroxy-1H-imidazo[4,5-b]pyridine-7-carboximidamide]	501	
O/N=C(\Nc1ccc(F)c(Cl)c1)c1ccnc2nc(CCNC3CC3)[nH]c12 [Example 207, N-(3-chloro-4-fluorophenyl)-2-(2-(cyclopropylamino)ethyl)-N′-hydroxy-3H-imidazo[4,5-b]pyridine-7-carboximidamide]	1260	
